Measurements as given in EP4603105A1, “PHARMACEUTICAL COMPOSITION CONTAINING CYCLIC COMPOUND HAVING SELECTIVE KRAS INHIBITORY EFFECT AGAINST HRAS AND NRAS” (CHUGAI SEIYAKU KABUSHIKI KAISHA, priority 2022, dated 2024).
Where a SMILES comes first, the peptide text is derived from it. Bridges are numbered along the chain shown (N, C = ends). [ ]: non-standard residue; d: D form. The star is where a group is joined. hPhe(3-Cl-4-CF3) = N[C@@H](CCc1ccc(C(F)(F)F)c(Cl)c1)C(=O)O; NPrPhe(4-CF3) = CCCN[C@@H](Cc1ccc(C(F)(F)F)cc1)C(=O)O; NEtPhe(4-Me) = CCN[C@@H](Cc1ccc(C)cc1)C(=O)O; NMeGly(cPent) = CN[C@H](C(=O)O)C1CCCC1; Hyp = O=C(O)[C@@H]1C[C@@H](O)CN1; NMeD = CN[C@@H](CC(=O)O)C(=O)O; NMeL = CN[C@@H](CC(C)C)C(=O)O; Morpholide = C1CN(*)CCO1; Ac5c = NC1(C(=O)O)CCCC1; Ac4c = NC1(C(=O)O)CCC1; NEtG = CCNCC(=O)O; Sar = CNCC(=O)O

Key:
HRAS wild-type protein = HRAS wild-type protein (Homo sapiens, UniProt P01112); test: Binding to HRAS by surface plasmon resonance (SPR), KD and KD ratio to KRAS
Chain of HRAS wild-type protein (P01112 whole entry): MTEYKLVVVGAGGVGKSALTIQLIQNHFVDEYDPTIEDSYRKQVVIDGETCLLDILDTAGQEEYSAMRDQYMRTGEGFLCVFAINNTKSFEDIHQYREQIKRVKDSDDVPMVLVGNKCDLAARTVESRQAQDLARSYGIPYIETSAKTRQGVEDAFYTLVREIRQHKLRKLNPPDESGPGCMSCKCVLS
Method in brief: (§1)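 SPR, 30°C: Avi-biotin RAS·GDP captured via Biotin CAPture (~100–300 RU); running buffer HBS pH 7.4, 1 mM DTT, 10 mM MgCl2, 0.01% Tween 20, 10 µM GDP, 4% DMSO. Single-cycle kinetics, 100 µL/min, 75 s injections; 1:1 model → KD.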

[1] = tested on: human lung cancer strain NCI-H441; format: cell-based
Method in brief: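 Proliferation was scored by […] measured after the reagent was added to cultures kept at 37°C in 5% carbon dioxide.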

[2] = biological target: GDP-bound NRAS wild-type protein (Homo sapiens, UniProt P01111); test: Binding to NRAS by surface plasmon resonance (SPR), KD and KD ratio to KRAS
Chain of GDP-bound NRAS wild-type protein (P01111 whole entry): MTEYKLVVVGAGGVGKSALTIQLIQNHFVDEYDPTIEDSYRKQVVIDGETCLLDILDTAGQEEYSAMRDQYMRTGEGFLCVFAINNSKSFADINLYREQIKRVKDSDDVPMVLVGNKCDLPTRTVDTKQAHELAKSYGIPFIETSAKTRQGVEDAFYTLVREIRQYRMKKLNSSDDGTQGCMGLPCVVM
Method in brief: as §1

[3] = ratio of KD value for HRAS wild-type protein to KD value for KRAS (SPR)
[4] = ratio of KD value for GDP-bound NRAS wild-type protein to KD value for KRAS (SPR)
[5] = ratio of KD for HRAS wild-type protein to KD for KRAS
[6] = ratio of KD for GDP-bound NRAS wild-type protein to KD for KRAS

IC50 [1] | SMILES | HRAS /KRAS (HRAS wild-type protein; [3]) | NRAS /KRAS [2, 4] | HRAS /KRAS (HRAS wild-type protein; ratio of the KD value with respect to HRAS wild-type protein to the KD value with respect to KRAS) | NRAS /KRAS ([2]; ratio of the KD value with respect to GDP-bound NRAS wild-type protein to the KD value with respect to KRAS) | HRAS /KRAS (HRAS wild-type protein; [5]) | NRAS /KRAS [2, 6]
1.8 nM | CCO[C@@H]1C[C@H]2C(=O)NC3(CC(C)(C)C3)C(=O)N(C)[C@@H](C3CCCC3)C(=O)N(C)[C@H](C(=O)N(C)C)CC(=O)N(C)[C@@H](CC)C(=O)N[C@@H]([C@@H](C)CC)C(=O)N(C)CC(=O)N(C)[C@H]3C/C=C\CCN(C3=O)[C@@H](Cc3ccc(C(F)(F)F)cc3)C(=O)N(C)CC(=O)N[C@@H](CCc3ccc(C(F)(F)F)c(OC)c3)C(=O)N2C1 [PP1559] | A (a compound having 10 or more and less than 20 is denoted as A) | A (a compound having 10 or more and less than 20 is denoted as A) | – | – | – | –
36.1 nM | CCO[C@@H]1C[C@H]2C(=O)NC3(CC(C)(C)C3)C(=O)N(C)[C@@H](C(CC)CC)C(=O)N(C)[C@H](C(=O)N(C)C)CC(=O)N(C)[C@@H](CC(C)C)C(=O)N[C@@H]([C@@H](C)CC)C(=O)N(C)CC(=O)N(C)[C@H]3C/C=C\CCN(C3=O)[C@@H](Cc3ccc(C)cc3)C(=O)N(C)CC(=O)N[C@@H](CCc3ccc(Cl)c(Cl)c3)C(=O)N2C1 [PP2185] | – | – | A (a compound having 10 or more and less than 20 is denoted as A) | AA (a compound having 20 or more is denoted as AA) | – | –
6.6 nM | CCO[C@@H]1C[C@H]2C(=O)NC3(CC(C)(C)C3)C(=O)N(C)[C@@H](C3CCCC3)C(=O)N(C)[C@H](C(=O)N(C)CC)CC(=O)N(C)[C@@H](CC(C)C)C(=O)N[C@@H]([C@@H](C)CC)C(=O)NCC(=O)N(C)[C@H]3C/C=C\CCN(C3=O)[C@@H](Cc3ccc(C(F)(F)F)cc3)C(=O)N(C)CC(=O)N[C@@H](CCc3cc(F)c(C(F)(F)F)c(F)c3)C(=O)N2C1 [PP1771] | A (a compound having 10 or more and less than 20 is denoted as A) | A (a compound having 10 or more and less than 20 is denoted as A) | – | – | – | –
18 nM | CCCN1C(=O)CN(C)C(=O)CN(C)C(=O)[C@H]([C@@H](C)CC)NC(=O)[C@H](CC(C)C)N(C)C(=O)C[C@@H](C(=O)N(C)C)NC(=O)[C@H](C2CCCC2)N(C)C(=O)C2(CCC2)NC(=O)[C@@H]2C[C@@H](OCC)CN2C(=O)[C@H](CCc2ccc(C(F)(F)F)c(Cl)c2)NC(=O)CN(C)C(=O)[C@@H]1Cc1ccc(C(F)(F)F)cc1 [PP0360] ([NMeL]I[Sar][Sar][NPrPhe(4-CF3)][Sar][hPhe(3-Cl-4-CF3)][Hyp](Et)[Ac4c][NMeGly(cPent)]D-NMe2; lactam N-11) | – | – | – | – | C (A compound having a KD ratio of 0.1 or more and less than 3 is denoted as C) | B (a compound having 3 or more and less than 10 is denoted as B)
54.5 nM | CC[C@H](C)[C@@H]1NC(=O)[C@H](CC(C)C)N(C)C(=O)C[C@@H](C(=O)N2CCOCC2)N(C)C(=O)[C@H](C2CCCC2)N(C)C(=O)C2(CCCC2)NC(=O)[C@@H]2CCCN2C(=O)[C@H](CCc2ccc(C(F)(F)F)c(Cl)c2)NC(=O)CN(CC)C(=O)[C@H](Cc2ccc(C)cc2)N(CC)C(=O)CN(C)C(=O)CN(C)C1=O [PP0028] ([NMeL]I[Sar][Sar][NEtPhe(4-Me)][NEtG][hPhe(3-Cl-4-CF3)]P[Ac5c][NMeGly(cPent)][NMeD]-Morpholide; lactam N-11) | – | – | – | – | C (A compound having a KD ratio of 0.1 or more and less than 3 is denoted as C) | C (A compound having a KD ratio of 0.1 or more and less than 3 is denoted as C)
6480 nM | CC[C@H](C)[C@@H]1NC(=O)[C@H](CC(C)C)N(C)C(=O)C[C@@H](C(=O)N2CCOCC2)N(CC)C(=O)[C@H](C2CCCC2)N(C)C(=O)C2(CCC2)NC(=O)[C@@H]2[C@H](O)CCN2C(=O)[C@H](CCc2cc(F)c(C(F)(F)F)c(F)c2)NC(=O)CN(C)C(=O)[C@H](Cc2ccc(C(F)(F)F)cc2)N2CCCCC[C@@H](C2=O)N(C)C(=O)CN(C)C1=O [PP0955] | – | – | – | – | A (a compound having 10 or more and less than 20 is denoted as A) | A (a compound having 10 or more and less than 20 is denoted as A)
